Values quoted from earlier work as cited in PMC10998826 (EJNMMI Research, 2024).

Details: active metabolite of sacubitril; cited from earlier work
Description: Sacubitril (AHU377) is a potent inhibitor of the NEP. The combination of sacubitril and the angiotensin-receptor blocker valsartan (Entresto®) is effective in reducing the risks of death and of hospitalization for heart failure and is approved for this indication in numerous countries. The highest blood plasma concentration of its active metabolite, LBQ657, is measured around two hours after oral intake.

C[C@H](C[C@@H](Cc1ccc(-c2ccccc2)cc1)NC(=O)CCC(=O)O)C(=O)O [LBQ657]
Time of highest blood plasma concentration after oral intake: around two
